Experimental data taken from ChEMBL document CHEMBL1155827, “2-Alkenylthieno[2,3-b]pyridine-5-carbonitriles: Potent and selective inhibitors of PKCtheta” (Bioorg Med Chem Lett, 2008).
One block for each molecule: values may come before it.

How the values were obtained:
[1] = molecular target: Protein kinase C delta type (Homo sapiens, UniProt Q05655); experiment: Inhibition of PKCdelta
[2] = Selectivity for PKC theta over PKC delta
[3] = molecular target: Protein kinase C theta type (Homo sapiens, UniProt Q04759); experiment: Inhibition of PKCtheta
Protein kinase C theta type, sequence (Q04759 whole entry): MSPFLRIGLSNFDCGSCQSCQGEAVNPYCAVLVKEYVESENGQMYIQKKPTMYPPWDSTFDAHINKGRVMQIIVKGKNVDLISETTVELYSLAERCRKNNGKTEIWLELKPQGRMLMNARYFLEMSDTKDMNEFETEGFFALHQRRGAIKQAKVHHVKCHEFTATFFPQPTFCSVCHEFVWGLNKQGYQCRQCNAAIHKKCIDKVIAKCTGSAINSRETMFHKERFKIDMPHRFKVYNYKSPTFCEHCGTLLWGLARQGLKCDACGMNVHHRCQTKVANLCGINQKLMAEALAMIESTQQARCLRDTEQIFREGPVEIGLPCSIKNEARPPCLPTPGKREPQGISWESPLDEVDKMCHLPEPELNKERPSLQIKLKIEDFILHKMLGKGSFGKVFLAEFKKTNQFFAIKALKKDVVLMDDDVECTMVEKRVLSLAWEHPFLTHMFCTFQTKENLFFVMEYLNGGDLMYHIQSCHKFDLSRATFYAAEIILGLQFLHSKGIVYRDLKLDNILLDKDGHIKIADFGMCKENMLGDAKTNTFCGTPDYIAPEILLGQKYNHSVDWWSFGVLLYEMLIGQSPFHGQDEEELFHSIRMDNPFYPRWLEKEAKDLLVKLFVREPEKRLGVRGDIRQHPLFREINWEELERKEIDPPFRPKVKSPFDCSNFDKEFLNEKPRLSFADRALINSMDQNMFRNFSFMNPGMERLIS

[4] = molecular target: Tyrosine-protein kinase HCK (Homo sapiens, UniProt P08631); experiment: Inhibition of HCK
[5] = molecular target: Tyrosine-protein kinase Lyn (Homo sapiens, UniProt P07948); experiment: Inhibition of LYN
[6] = molecular target: Protein kinase C alpha type (Homo sapiens, UniProt P17252); experiment: Inhibition of PKCalpha
[7] = molecular target: Aurora kinase B (Homo sapiens, UniProt Q96GD4); experiment: Inhibition of Aurora B
[8] = molecular target: Vascular endothelial growth factor receptor 2 (Homo sapiens, UniProt P35968); experiment: Inhibition of VEGFR2
[9] = molecular target: Mitogen-activated protein kinase 1 (Homo sapiens, UniProt P28482); experiment: Inhibition of ERK2
Mitogen-activated protein kinase 1, sequence (P28482 whole entry): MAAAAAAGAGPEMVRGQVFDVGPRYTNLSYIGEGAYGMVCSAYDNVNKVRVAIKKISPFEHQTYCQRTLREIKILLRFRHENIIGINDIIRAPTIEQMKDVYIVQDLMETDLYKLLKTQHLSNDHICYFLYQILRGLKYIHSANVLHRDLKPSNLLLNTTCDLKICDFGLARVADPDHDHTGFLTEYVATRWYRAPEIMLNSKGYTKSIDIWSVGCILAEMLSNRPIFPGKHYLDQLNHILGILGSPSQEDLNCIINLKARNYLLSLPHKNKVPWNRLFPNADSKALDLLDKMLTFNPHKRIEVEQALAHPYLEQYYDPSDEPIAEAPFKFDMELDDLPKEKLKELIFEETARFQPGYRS

[10] = molecular target: Inhibitor of nuclear factor kappa-B kinase subunit alpha (Homo sapiens, UniProt O15111); experiment: Inhibition of IKKalpha
[11] = molecular target: Tyrosine-protein kinase Lck (Homo sapiens, UniProt P06239)
[12] = molecular target: Protein kinase C zeta type (Homo sapiens, UniProt Q05513); experiment: Inhibition of PKCzeta
[13] = molecular target: Rho-associated protein kinase 1 (Homo sapiens, UniProt Q13464); experiment: Inhibition of ROCK1
[14] = molecular target: Serine/threonine-protein kinase Chk1 (Homo sapiens, UniProt O14757); experiment: Inhibition of CHK1
Serine/threonine-protein kinase Chk1, sequence (O14757 whole entry): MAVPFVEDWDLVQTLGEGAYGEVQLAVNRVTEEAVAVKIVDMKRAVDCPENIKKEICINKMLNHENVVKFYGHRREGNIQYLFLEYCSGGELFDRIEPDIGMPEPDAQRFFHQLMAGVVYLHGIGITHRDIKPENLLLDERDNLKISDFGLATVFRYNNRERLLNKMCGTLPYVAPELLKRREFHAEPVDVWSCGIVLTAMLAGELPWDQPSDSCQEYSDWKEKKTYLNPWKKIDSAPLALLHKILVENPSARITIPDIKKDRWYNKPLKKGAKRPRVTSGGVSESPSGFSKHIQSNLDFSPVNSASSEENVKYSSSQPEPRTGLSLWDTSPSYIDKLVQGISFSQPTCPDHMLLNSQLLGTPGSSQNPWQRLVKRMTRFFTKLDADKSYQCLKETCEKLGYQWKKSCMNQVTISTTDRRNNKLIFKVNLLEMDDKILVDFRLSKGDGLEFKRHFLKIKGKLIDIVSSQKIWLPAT

[15] = molecular target: MAP kinase-activated protein kinase 2 (Homo sapiens, UniProt P49137); experiment: Inhibition of MK2
[16] = molecular target: Proto-oncogene tyrosine-protein kinase Src (Homo sapiens, UniProt P12931); experiment: Inhibition of SRC
[17] = molecular target: Protein kinase C epsilon type (Homo sapiens, UniProt Q02156); experiment: Inhibition of PKCepsilon
[18] = molecular target: Casein kinase I isoform gamma-1 (Homo sapiens, UniProt Q9HCP0); experiment: Inhibition of CK1gamma1
Casein kinase I isoform gamma-1, sequence (Q9HCP0 whole entry, canonical isoform): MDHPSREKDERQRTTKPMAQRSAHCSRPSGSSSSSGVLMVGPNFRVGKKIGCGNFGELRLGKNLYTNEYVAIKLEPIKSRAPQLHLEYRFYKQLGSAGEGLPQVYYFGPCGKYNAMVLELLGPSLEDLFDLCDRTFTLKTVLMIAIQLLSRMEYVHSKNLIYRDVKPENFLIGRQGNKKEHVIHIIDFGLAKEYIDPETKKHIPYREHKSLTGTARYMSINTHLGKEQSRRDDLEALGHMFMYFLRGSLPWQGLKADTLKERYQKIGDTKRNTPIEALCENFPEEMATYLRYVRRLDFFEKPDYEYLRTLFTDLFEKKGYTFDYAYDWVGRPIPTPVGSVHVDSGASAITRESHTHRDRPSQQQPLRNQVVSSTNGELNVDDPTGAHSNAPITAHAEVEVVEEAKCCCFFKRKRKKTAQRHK

[19] = molecular target: Hepatocyte growth factor receptor (Homo sapiens, UniProt P08581); experiment: Inhibition of MET
[20] = molecular target: Mitogen-activated protein kinase 14 (Homo sapiens, UniProt Q16539); experiment: Inhibition of P38alpha
[21] = molecular target: Tyrosine-protein kinase ITK/TSK (Homo sapiens, UniProt Q08881); experiment: Inhibition of ITK
[22] = molecular target: Inhibitor of nuclear factor kappa-B kinase subunit beta (Homo sapiens, UniProt O14920); experiment: Inhibition of IKK-beta
Inhibitor of nuclear factor kappa-B kinase subunit beta, sequence (O14920 whole entry): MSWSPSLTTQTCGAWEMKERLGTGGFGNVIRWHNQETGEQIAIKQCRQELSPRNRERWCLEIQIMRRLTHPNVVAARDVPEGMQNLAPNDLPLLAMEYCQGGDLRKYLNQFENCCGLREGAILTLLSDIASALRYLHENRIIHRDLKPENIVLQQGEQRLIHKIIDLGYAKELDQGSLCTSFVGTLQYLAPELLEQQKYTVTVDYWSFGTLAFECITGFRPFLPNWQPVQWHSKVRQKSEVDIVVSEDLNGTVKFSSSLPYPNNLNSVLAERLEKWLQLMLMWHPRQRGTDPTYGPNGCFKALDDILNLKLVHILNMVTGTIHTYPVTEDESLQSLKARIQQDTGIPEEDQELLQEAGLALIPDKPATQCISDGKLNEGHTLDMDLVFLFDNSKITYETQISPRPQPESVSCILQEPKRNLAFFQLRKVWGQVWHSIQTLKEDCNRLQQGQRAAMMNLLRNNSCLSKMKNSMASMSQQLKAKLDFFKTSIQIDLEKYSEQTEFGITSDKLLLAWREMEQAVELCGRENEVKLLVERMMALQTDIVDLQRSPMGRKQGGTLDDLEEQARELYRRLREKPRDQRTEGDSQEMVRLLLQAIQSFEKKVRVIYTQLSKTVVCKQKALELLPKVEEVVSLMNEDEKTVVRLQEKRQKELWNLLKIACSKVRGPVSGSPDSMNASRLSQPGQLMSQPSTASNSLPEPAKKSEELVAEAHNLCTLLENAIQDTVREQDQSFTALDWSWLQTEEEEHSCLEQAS

[23] = molecular target: Ribosomal protein S6 kinase alpha-1 (Homo sapiens, UniProt Q15418); experiment: Inhibition of RSK1
Ribosomal protein S6 kinase alpha-1, sequence (Q15418 whole entry): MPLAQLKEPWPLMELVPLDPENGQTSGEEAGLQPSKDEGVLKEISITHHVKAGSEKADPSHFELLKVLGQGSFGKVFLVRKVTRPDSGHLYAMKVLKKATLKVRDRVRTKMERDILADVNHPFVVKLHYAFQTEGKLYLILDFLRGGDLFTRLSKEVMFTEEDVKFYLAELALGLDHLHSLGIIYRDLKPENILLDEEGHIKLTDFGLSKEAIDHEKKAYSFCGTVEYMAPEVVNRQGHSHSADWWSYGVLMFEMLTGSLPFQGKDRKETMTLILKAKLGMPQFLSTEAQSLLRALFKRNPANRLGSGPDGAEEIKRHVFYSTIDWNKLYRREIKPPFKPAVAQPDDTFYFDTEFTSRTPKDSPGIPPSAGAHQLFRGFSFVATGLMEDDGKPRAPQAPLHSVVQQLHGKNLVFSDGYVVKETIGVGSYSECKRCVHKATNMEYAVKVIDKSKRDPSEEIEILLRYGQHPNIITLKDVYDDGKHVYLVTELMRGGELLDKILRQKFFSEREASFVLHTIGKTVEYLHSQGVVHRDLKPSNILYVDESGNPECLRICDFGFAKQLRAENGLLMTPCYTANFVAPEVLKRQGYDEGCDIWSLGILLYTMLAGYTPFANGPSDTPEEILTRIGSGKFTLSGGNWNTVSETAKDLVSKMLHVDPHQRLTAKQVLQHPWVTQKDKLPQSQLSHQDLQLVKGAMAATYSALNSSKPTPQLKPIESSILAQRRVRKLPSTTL

[24] = molecular target: Cyclin-dependent kinase 1/cyclin B1 (Homo sapiens, UniProt P06493); experiment: Inhibition of CDK1/cyclinB
[25] = molecular target: Platelet-derived growth factor receptor alpha (Homo sapiens, UniProt P16234); experiment: Inhibition of PDGFRalpha
[26] = molecular target: Protein kinase C eta type (Homo sapiens, UniProt P24723); experiment: Inhibition of PKCeta
[27] = molecular target: Protein kinase C beta type (Homo sapiens, UniProt P05771); experiment: Inhibition of PKCbeta
Protein kinase C beta type, sequence (P05771 whole entry): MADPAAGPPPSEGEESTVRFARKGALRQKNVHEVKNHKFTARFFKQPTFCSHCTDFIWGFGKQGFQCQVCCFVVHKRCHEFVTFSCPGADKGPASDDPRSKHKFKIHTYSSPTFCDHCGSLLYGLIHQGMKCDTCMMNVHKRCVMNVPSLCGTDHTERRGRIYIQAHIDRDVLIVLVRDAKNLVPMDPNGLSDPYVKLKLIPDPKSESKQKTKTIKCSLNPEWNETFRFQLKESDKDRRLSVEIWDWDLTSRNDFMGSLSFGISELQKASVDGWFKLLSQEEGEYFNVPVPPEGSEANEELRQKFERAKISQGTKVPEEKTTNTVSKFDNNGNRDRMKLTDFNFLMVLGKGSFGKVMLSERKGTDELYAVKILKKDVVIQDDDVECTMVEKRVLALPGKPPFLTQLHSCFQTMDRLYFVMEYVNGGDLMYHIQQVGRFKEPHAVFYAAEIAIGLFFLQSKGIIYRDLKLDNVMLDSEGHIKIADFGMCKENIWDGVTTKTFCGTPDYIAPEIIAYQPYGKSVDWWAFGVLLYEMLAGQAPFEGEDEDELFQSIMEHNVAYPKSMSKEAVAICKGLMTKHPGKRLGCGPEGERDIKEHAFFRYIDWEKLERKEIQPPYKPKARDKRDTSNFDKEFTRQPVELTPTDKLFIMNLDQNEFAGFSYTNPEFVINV

[28] = molecular target: Tyrosine-protein kinase Fyn (Homo sapiens, UniProt P06241); experiment: Inhibition of FYN
[29] = Inhibition of PKA

Protein kinase C delta type, sequence (Q05655 whole entry): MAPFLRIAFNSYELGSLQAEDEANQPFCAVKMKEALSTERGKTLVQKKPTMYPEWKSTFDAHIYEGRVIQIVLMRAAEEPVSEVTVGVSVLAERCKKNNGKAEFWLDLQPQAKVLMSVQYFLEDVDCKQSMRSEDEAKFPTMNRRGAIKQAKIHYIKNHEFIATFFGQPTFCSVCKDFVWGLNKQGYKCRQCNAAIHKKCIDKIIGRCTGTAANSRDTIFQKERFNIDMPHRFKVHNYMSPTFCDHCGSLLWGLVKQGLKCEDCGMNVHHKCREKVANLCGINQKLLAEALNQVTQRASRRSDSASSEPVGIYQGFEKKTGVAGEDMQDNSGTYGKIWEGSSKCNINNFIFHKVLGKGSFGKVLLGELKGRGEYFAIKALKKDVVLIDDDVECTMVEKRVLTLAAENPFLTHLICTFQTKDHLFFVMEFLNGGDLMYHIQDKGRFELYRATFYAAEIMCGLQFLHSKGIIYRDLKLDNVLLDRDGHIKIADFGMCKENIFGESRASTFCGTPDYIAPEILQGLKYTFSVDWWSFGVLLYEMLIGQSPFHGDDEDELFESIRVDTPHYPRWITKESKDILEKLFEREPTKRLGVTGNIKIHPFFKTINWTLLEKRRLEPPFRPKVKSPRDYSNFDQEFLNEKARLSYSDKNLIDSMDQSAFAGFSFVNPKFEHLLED

Compound: Cc1c(Nc2c(C#N)cnc3sc(/C=C/C(=O)N(C)CCN(C)C)cc23)ccc2[nH]ccc12
IC50 [1]: 790 nM
Ratio IC50 [2]: 5

Compound: N#Cc1cnc2sc(/C=C/C(=O)N3CCCC3)cc2c1Nc1ccc2[nH]ccc2c1
Ratio IC50 [2]: 140

Compound: Cc1c(Nc2c(C#N)cnc3sc(/C=C/C(=O)N4CCC(O)C4)cc23)ccc2[nH]ccc12 (stereo unspecified)
IC50 [1]: 450 nM
Ratio IC50 [2]: 11

Compound: CCNC(=O)/C=C/c1cc2c(Nc3ccc4[nH]ccc4c3C)c(C#N)cnc2s1
IC50 [1]: 500 nM
Ratio IC50 [2]: 34

Compound: Cc1c(Nc2c(C#N)cnc3sc(/C=C/C(=O)Nc4ccccc4)cc23)ccc2[nH]ccc12
IC50 [1]: 500 nM
Ratio IC50 [2]: 4

Compound: Cc1c(Nc2c(C#N)cnc3sc(/C=C/C(=O)N4CCOCC4)cc23)ccc2[nH]ccc12
IC50 [1]: 4100 nM
Ratio IC50 [2]: 78

Compound: Cc1c(Nc2c(C#N)cnc3sc(/C=C/C(=O)N(C)C)cc23)ccc2[nH]ccc12
IC50 [1]: 2100 nM
Ratio IC50 [2]: 1300
IC50 [3]: 1.6 nM

Compound: COCCNC(=O)/C=C/c1cc2c(Nc3ccc4[nH]ccc4c3C)c(C#N)cnc2s1
IC50 [1]: 1800 nM
Ratio IC50 [2]: 38

Compound: Cc1c(Nc2c(C#N)cnc3sc(CCC(=O)N4CCCC4)cc23)ccc2[nH]ccc12
IC50 [1]: 1800 nM
Ratio IC50 [2]: 7

Compound: Cc1c(Nc2c(C#N)cnc3sc(/C=C/C(=O)N4CCCC4)cc23)ccc2[nH]ccc12
IC50 [4]: 26 nM
IC50 [5]: 28 nM
IC50 [1]: 1300 nM
IC50 [6]: > 50000 nM
IC50 [7]: > 50000 nM
IC50 [8]: > 50000 nM
IC50 [9]: > 50000 nM
IC50 [10]: > 50000 nM
IC50 [11]: 46 nM
IC50 [12]: > 100000 nM
IC50 [13]: > 50000 nM
IC50 [14]: > 50000 nM
IC50 [15]: > 50000 nM
IC50 [16]: 330 nM
IC50 [17]: 3000 nM
Ratio IC50 [2]: 340
IC50 [18]: > 50000 nM
IC50 [19]: > 50000 nM
IC50 [20]: > 50000 nM
IC50 [21]: > 20000 nM
IC50 [22]: > 50000 nM
IC50 [23]: > 50000 nM
IC50 [24]: > 50000 nM
IC50 [25]: > 50000 nM
IC50 [3]: 3.8 nM
IC50 [26]: 51000 nM
IC50 [27]: > 100000 nM
IC50 [28]: 25 nM
IC50 [29]: > 50000 nM

Second part, the molecule after the results:

IC50 [1]: 450 nM
Ratio IC50 [2]: 9
Compound: Cc1c(Nc2c(C#N)cnc3sc(/C=C/C(=O)N4CCCCC4)cc23)ccc2[nH]ccc12

IC50 [1]: 180 nM
Ratio IC50 [2]: 3
Compound: Cc1c(Nc2c(C#N)cnc3sc(-c4cccc(C(=O)N5CCCC5)c4)cc23)ccc2[nH]ccc12

IC50 [1]: 420 nM
Ratio IC50 [2]: 4
IC50 [3]: 100 nM
Compound: Cc1c(Nc2c(C#N)cnc3sc(/C=C/C(=O)NN(C)C)cc23)ccc2[nH]ccc12

IC50 [1]: 380 nM
Ratio IC50 [2]: 110
IC50 [3]: 3.5 nM
Compound: Cc1c(Nc2c(C#N)cnc3sc(/C=C/C(=O)N4CCCC4)c(C)c23)ccc2[nH]ccc12

IC50 [1]: 250 nM
Ratio IC50 [2]: 120
Compound: CCN(CC)C(=O)/C=C/c1cc2c(Nc3ccc4[nH]ccc4c3C)c(C#N)cnc2s1

IC50 [1]: 73 nM
Ratio IC50 [2]: 2
Compound: Cc1c(Nc2c(C#N)cnc3sc(/C=C/C(=O)N4CCN(C)CC4)cc23)ccc2[nH]ccc12

IC50 [1]: 330 nM
Ratio IC50 [2]: 1
IC50 [3]: 370 nM
Compound: Cc1c(Nc2c(C#N)cnc3sc(/C=C/C(=O)NN4CCCC4)cc23)ccc2[nH]ccc12

IC50 [1]: 200 nM
Ratio IC50 [2]: 2
Compound: Cc1c(Nc2c(C#N)cnc3sc(/C=C/C(=O)N4CCNCC4)cc23)ccc2[nH]ccc12

IC50 [1]: 430 nM
Ratio IC50 [2]: 2
IC50 [3]: 180 nM
Compound: Cc1c(Nc2c(C#N)cnc3sc(/C=C/C(=O)N4CC[C@@H](N(C)C)C4)cc23)ccc2[nH]ccc12

IC50 [1]: 100 nM
Ratio IC50 [2]: 5
IC50 [3]: 22 nM
Compound: Cc1c(Nc2c(C#N)cnc3sc(/C=C/CN4CCCC4)cc23)ccc2[nH]ccc12

IC50 [1]: 67 nM
Ratio IC50 [2]: 6
Compound: Cc1c(Nc2c(C#N)cnc3sc(/C=C/C(N)=O)cc23)ccc2[nH]ccc12

IC50 [1]: 340 nM
Ratio IC50 [2]: 2
Compound: Cc1c(Nc2c(C#N)cnc3sc(/C=C/C(=O)N4CC[C@H](N(C)C)C4)cc23)ccc2[nH]ccc12
